Where “and” joins values, the source holds several entries; their conditions need not be identical. Equal entries are not always repeated. Inconclusive results and toxic doses are left out.
Tested on: B6C3F1 mice, ip Sarcoma M5076, median survival T/C
Experiment: NCI In Vivo Anticancer Drug Screen. Data for tumor model Sarcoma M5076 (intraperitoneal) in B6C3F1 mice
Conditions: endpoint: median survival time, schedule: Q04DX004 (ip), higher = longer survival
Summary of the method: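 Transplantable tumour in mice; compound-treated vs vehicle-treated groups. Read-out: survival. Value = treated/control ratio.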

[1] = dose: 50.0 mg/kg/injection, vehicle: saline with Tween-80
[2] = dose: 100.0 mg/kg/injection, vehicle: saline with Tween-80
[3] = dose: 200.0 mg/kg/injection, vehicle: saline with Tween-80
[4] = dose: 400.0 mg/kg/injection, vehicle: saline with Tween-80
[5] = dose: 50.0 mg/kg/injection, vehicle: saline
[6] = dose: 100.0 mg/kg/injection, vehicle: saline
[7] = dose: 50.0 mg/kg/injection, vehicle: suspension in saline
[8] = dose: 100.0 mg/kg/injection, vehicle: suspension in saline
[9] = dose: 25.0 mg/kg/injection, vehicle: saline

Structure (SMILES): NC(C(=O)O)C1=CCCC1 (configuration not stated)
- T/C (dose: 25.0 mg/kg/injection, vehicle: saline with Tween-80): 102 % of control
- T/C [1]: 99 % of control
- T/C [2]: 98 % of control
- T/C [3]: 98 % of control
- T/C [4]: 87 % of control

Structure (SMILES): BrC[P+](CBr)(CBr)CBr
- T/C (dose: 15.63 mg/kg/injection, vehicle: saline with Tween-80): 107 % of control and 115 % of control
- T/C (dose: 125.0 mg/kg/injection, vehicle: saline with Tween-80): 186 % of control

Structure (SMILES): N[C@@H](C[C@H]1CCC(=O)[C@@H]2O[C@H]12)C(=O)O
- T/C [5]: 97 % of control
- T/C [6]: 106 % of control
- T/C (dose: 200.0 mg/kg/injection, vehicle: saline): 117 % of control
- T/C (dose: 400.0 mg/kg/injection, vehicle: saline): 115 % of control

Structure (SMILES): Cc1nn(-c2ccccn2)c2ncnc(N)c12
- T/C (dose: 37.5 mg/kg/injection, vehicle: saline with Tween-80): 106 % of control
- T/C (dose: 75.0 mg/kg/injection, vehicle: saline with Tween-80): 102 % of control
- T/C (dose: 150.0 mg/kg/injection, vehicle: saline with Tween-80): 86 % of control

Structure (SMILES): CC[C@@H](C)[C@H]([C@H](CC(=O)N1CCC[C@@H]1[C@@H](OC)[C@H](C)C(=O)N[C@H](Cc1ccccc1)c1nccs1)OC)N(C)C(=O)[C@H](NC(=O)[C@@H](C(C)C)N(C)C)C(C)C
- T/C (dose: 8.0 micrograms/kg/injection, vehicle: saline + alcohol): 153 % of control
- T/C (dose: 36.0 micrograms/kg/injection, vehicle: saline + alcohol): 153 % of control

Structure (SMILES): Cn1c(-c2ccc(/C=N\N3CCN(/N=C/c4ccc(-c5c[n+]6ccsc6n5C)cc4)CC3)cc2)c[n+]2ccsc12
- T/C (dose: 1.5 mg/kg/injection, vehicle: saline with Tween-80): 109 % of control
- T/C (dose: 3.0 mg/kg/injection, vehicle: saline with Tween-80): 104 % of control
- T/C (dose: 6.0 mg/kg/injection, vehicle: saline with Tween-80): 101 % of control

Structure (SMILES): C=CC(=O)NCNC(=O)C=C
- T/C [7]: 99 % of control
- T/C [8]: 115 % of control

Structure (SMILES): Cc1c(O)c2ccccc2c2c1sc(NCCCN(CCO)CCO)[n+]2C
- T/C (dose: 7.5 mg/kg/injection, vehicle: saline): 93 % of control
- T/C (dose: 15.0 mg/kg/injection, vehicle: saline): 98 % of control
- T/C (dose: 30.0 mg/kg/injection, vehicle: saline): 94 % of control

Structure (SMILES): O=NNc1cccnc1
- T/C (dose: 12.5 mg/kg/injection, vehicle: water): 99 % of control and 119 % of control
- T/C (dose: 25.0 mg/kg/injection, vehicle: water): 110 % of control and 113 % of control
- T/C (dose: 50.0 mg/kg/injection, vehicle: water): 97 % of control and 110 % of control
- T/C (dose: 100.0 mg/kg/injection, vehicle: water): 124 % of control

Structure (SMILES): C=CCNC(=O)c1ccccc1SC(C)=O
- T/C [1]: 103 % of control
- T/C [2]: 96 % of control
- T/C [3]: 90 % of control
- T/C [4]: 103 % of control

Structure (SMILES): O=c1[nH]c(=O)n(C2OC(CF)C(O)C2O)cc1N1CCOCC1 (configuration not stated)
- T/C (dose: 17.5 mg/kg/injection, vehicle: saline): 100 % of control
- T/C (dose: 35.0 mg/kg/injection, vehicle: saline): 104 % of control
- T/C (dose: 70.0 mg/kg/injection, vehicle: saline): 97 % of control
- T/C (dose: 140.0 mg/kg/injection, vehicle: saline): 104 % of control
- T/C (dose: 280.0 mg/kg/injection, vehicle: saline): 102 % of control

Structure (SMILES): COc1cc2c(c(OC)c1OC)-c1ccc(SC)c(=O)cc1[C@@H](NC(C)=O)CC2
- T/C (dose: 0.03 mg/kg/injection, vehicle: Klucel (hydroxypropylcellulose) (HPC)): 102 % of control
- T/C (dose: 0.05 mg/kg/injection, vehicle: Klucel (hydroxypropylcellulose) (HPC)): 106 % of control
- T/C (dose: 0.1 mg/kg/injection, vehicle: Klucel (hydroxypropylcellulose) (HPC)): 104 % of control and 113 % of control
- T/C (dose: 0.14 mg/kg/injection, vehicle: Klucel (hydroxypropylcellulose) (HPC)): 114 % of control
- T/C (dose: 0.19 mg/kg/injection, vehicle: Klucel (hydroxypropylcellulose) (HPC)): 112 % of control
- T/C (dose: 0.23 mg/kg/injection, vehicle: Klucel (hydroxypropylcellulose) (HPC)): 116 % of control
- T/C (dose: 0.45 mg/kg/injection, vehicle: Klucel (hydroxypropylcellulose) (HPC)): 103 % of control

Structure (SMILES): Cc1ccc(C(=O)Nc2ccc(S(=O)(=O)O)c3cc(S(=O)(=O)O)cc(S(=O)(=O)O)c23)cc1NC(=O)c1cccc(NC(=O)Nc2cccc(C(=O)Nc3cc(C(=O)Nc4ccc(S(=O)(=O)O)c5cc(S(=O)(=O)O)cc(S(=O)(=O)O)c45)ccc3C)c2)c1
- T/C [9]: 105 % of control
- T/C [5]: 108 % of control and 109 % of control
- T/C [6]: 112 % of control

Structure (SMILES): COc1cccc2sc(-n3c(C)nc4ccccc4c3=O)nc12
- T/C (dose: 31.25 mg/kg/injection, vehicle: Klucel (hydroxypropylcellulose) (HPC)): 109 % of control
- T/C (dose: 62.5 mg/kg/injection, vehicle: Klucel (hydroxypropylcellulose) (HPC)): 94 % of control
- T/C (dose: 125.0 mg/kg/injection, vehicle: Klucel (hydroxypropylcellulose) (HPC)): 93 % of control
- T/C (dose: 250.0 mg/kg/injection, vehicle: Klucel (hydroxypropylcellulose) (HPC)): 94 % of control
- T/C (dose: 500.0 mg/kg/injection, vehicle: Klucel (hydroxypropylcellulose) (HPC)): 95 % of control

Structure (SMILES): N=C(N)Sc1ccccn1
- T/C (dose: 62.5 mg/kg/injection, vehicle: saline): 97 % of control
- T/C (dose: 125.0 mg/kg/injection, vehicle: saline): 101 % of control
- T/C (dose: 250.0 mg/kg/injection, vehicle: saline): 90 % of control

Structure (SMILES): CN(C)N=Nc1ccc(C(=O)O)cc1
- T/C [9]: 122 % of control
- T/C [5]: 153 % of control and 159 % of control and 169 % of control
- T/C [6]: 168 % of control and 178 % of control and 181 % of control

Structure (SMILES): C=C1c2cccc(O)c2C(O)=C2C(=O)[C@]3(O)C(O)=C(C(N)=O)C(=O)[C@@H](N(C)C)[C@@H]3[C@@H](O)[C@H]12
- T/C (dose: 12.5 mg/kg/injection, vehicle: Klucel (hydroxypropylcellulose) (HPC)): 105 % of control
- T/C (dose: 25.0 mg/kg/injection, vehicle: Klucel (hydroxypropylcellulose) (HPC)): 105 % of control
- T/C (dose: 50.0 mg/kg/injection, vehicle: Klucel (hydroxypropylcellulose) (HPC)): 101 % of control
- T/C (dose: 100.0 mg/kg/injection, vehicle: Klucel (hydroxypropylcellulose) (HPC)): 102 % of control

Structure (SMILES): CN(C)C(=O)SC1=C(c2c(Cl)cccc2Cl)C(=O)c2ccccc21
- T/C (dose: 37.5 mg/kg/injection, vehicle: Klucel (hydroxypropylcellulose) (HPC)): 97 % of control
- T/C (dose: 75.0 mg/kg/injection, vehicle: Klucel (hydroxypropylcellulose) (HPC)): 113 % of control
- T/C (dose: 150.0 mg/kg/injection, vehicle: Klucel (hydroxypropylcellulose) (HPC)): 104 % of control
- T/C (dose: 300.0 mg/kg/injection, vehicle: Klucel (hydroxypropylcellulose) (HPC)): 95 % of control
- T/C (dose: 1200.0 mg/kg/injection, vehicle: Klucel (hydroxypropylcellulose) (HPC)): 95 % of control

Structure (SMILES): CCOC(=O)C1=C(Nc2ccc(OC)cc2)C(N)=NC1=N
- T/C (dose: 12.5 mg/kg/injection, vehicle: suspension in saline): 102 % of control
- T/C (dose: 25.0 mg/kg/injection, vehicle: suspension in saline): 100 % of control
- T/C [1]: 101 % of control
- T/C [7]: 111 % of control
- T/C [2]: 99 % of control
- T/C [8]: 101 % of control
- T/C [3]: 102 % of control
- T/C (dose: 200.0 mg/kg/injection, vehicle: suspension in saline): 105 % of control
- T/C [4]: 106 % of control
- T/C (dose: 800.0 mg/kg/injection, vehicle: saline with Tween-80): 101 % of control

— PubChem BioAssay AID292 (DTP/NCI, 2004)
